# Data: ChEMBL document CHEMBL2021894, “The Discovery of VX-745: A Novel and Selective p38α Kinase Inhibitor” (ACS Med Chem Lett, 2011)
# Experiments:
# [1] = target: T1, Mitogen-activated protein kinase 14 (Homo sapiens, UniProt Q16539); assay: Inhibition of p38alpha kinase using KRELVEPLTPSGEAPNQALLR as substrate for 20 mins by lactate dehydrogenase-coupled spectrophotometric assay
# [2] = target: T1, Mitogen-activated protein kinase 14; assay: Inhibition of p38alpha in human PBMC assessed as inhibition of LPS-induced TNFalpha production after 16 to 18 hrs by ELISA
# [3] = target: T1, Mitogen-activated protein kinase 14; assay: Inhibition of p38alpha in human PBMC assessed as inhibition of LPS-induced IL1beta production after 16 to 18 hrs by ELISA
# T1 sequence (Q16539 whole entry): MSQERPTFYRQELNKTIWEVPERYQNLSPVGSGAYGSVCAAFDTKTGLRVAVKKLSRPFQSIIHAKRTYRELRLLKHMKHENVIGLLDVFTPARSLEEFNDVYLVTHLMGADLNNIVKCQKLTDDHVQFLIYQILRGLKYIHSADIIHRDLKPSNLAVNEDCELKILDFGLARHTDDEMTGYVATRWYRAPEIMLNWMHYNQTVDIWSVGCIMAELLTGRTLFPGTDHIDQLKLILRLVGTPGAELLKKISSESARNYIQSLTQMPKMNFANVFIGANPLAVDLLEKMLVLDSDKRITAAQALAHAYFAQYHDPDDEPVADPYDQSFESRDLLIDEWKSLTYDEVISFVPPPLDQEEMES
Structure (SMILES),IC50 [1] [nM],IC50 [2] [nM],IC50 [3] [nM]
O=c1ncn2nc(Sc3ccccc3O)ccc2c1-c1c(Cl)cccc1Cl,360,490,140
O=c1ncn2nc(Sc3ccccc3)ccc2c1-c1ccccc1Cl,4100,,
O=c1ncn2nc(Sc3ccccc3)ccc2c1-c1c(F)cccc1F,3500,15300,3700
Cc1ccc(Sc2ccc3c(-c4c(Cl)cccc4Cl)c(=O)ncn3n2)cc1C,1900,3500,2400
Cc1cc(Cl)ccc1Sc1ccc2c(-c3c(Cl)cccc3Cl)c(=O)ncn2n1,180,160,180
Cc1cccc(Sc2ccc3c(-c4c(Cl)cccc4Cl)c(=O)ncn3n2)c1,1400,,
COc1ccccc1-c1c(=O)ncn2nc(Sc3ccccc3)ccc12,12000,,2800
O=c1ncn2nc(Sc3ccc(F)cc3)ccc2c1-c1c(Cl)cccc1Cl,123,293,
O=c1ncn2nc(Sc3ccccc3)ccc2c1-c1c(F)cccc1C(F)(F)F,1700,3100,1000
O=c1ncn2nc(Sc3ccccc3)ccc2c1-c1ccc(F)cc1,> 20000,> 20000,
O=c1ncn2nc(Sc3ccccc3)ccc2c1-c1ccc(Cl)cc1Cl,5000,20000,20000

# Results, then the compound that gave them:
IC50 [1] [nM],IC50 [2] [nM],IC50 [3] [nM],Structure (SMILES)
280,,,O=c1ncn2nc(Sc3cccc(Cl)c3)ccc2c1-c1c(Cl)cccc1Cl
> 20000,,,O=c1ncn2nc(Sc3ccccc3)ccc2c1-c1ccccc1
800,1200,,O=c1ncn2nc(Sc3ccc(Cl)c(Cl)c3)ccc2c1-c1c(Cl)cccc1Cl
750,2800,980,CCc1ccccc1Sc1ccc2c(-c3c(Cl)cccc3Cl)c(=O)ncn2n1
200,3700,330,Cc1ccccc1Sc1ccc2c(-c3c(Cl)cccc3Cl)c(=O)ncn2n1
11000,> 20000,2100,O=c1ncn2nc(Sc3ccccc3)ccc2c1-c1ccccc1C(F)(F)F
36,275,53,O=c1ncn2nc(Sc3ccc(F)cc3Cl)ccc2c1-c1c(Cl)cccc1Cl
220,1200,280,Nc1cc(F)ccc1Sc1ccc2c(-c3c(Cl)cccc3Cl)c(=O)ncn2n1
4400,9700,,Cc1ccccc1-c1c(=O)ncn2nc(Sc3ccccc3)ccc12
260,320,690,Cc1ccc(Sc2ccc3c(-c4c(Cl)cccc4Cl)c(=O)ncn3n2)c(C)c1
500,480,180,O=c1ncn2nc(Sc3ccc(F)c(Cl)c3)ccc2c1-c1c(Cl)cccc1Cl
1400,,370,Cc1ccc(Sc2ccc3c(-c4c(Cl)cccc4Cl)c(=O)ncn3n2)cc1
250,460,400,O=c1ncn2nc(Sc3ccccc3)ccc2c1-c1c(Cl)cccc1Cl
,720,440,O=c1ncn2nc(Sc3cccc(F)c3)ccc2c1-c1c(Cl)cccc1Cl
